Measurements: patent US10626112B2, “Heterocyclic sulfonamide derivative and medicine comprising same” (EA PHARMA CO., LTD., priority 2014, dated 2020)

Biological target: human TRPA1 (Homo sapiens (Human), UniProt O75762)
Test: Measurement of TRPA1 antagonist activity (1): intracellular calcium increase
Assay type: cell-based
Settings: 293T cells transfected with human TRPA1 expression plasmid; allylisothiocyanate 20 μM stimulation; intracellular calcium fluorescence; read-out: hTRPA1 IC50
Method in brief: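 Calcium-flux readout of TRPA1 block: compound given 10 min before 20 μM (final) allylisothiocyanate, fluorescence tracked 5 min. Cells were 293T transiently expressing human TRPA1, dye-loaded 1 hr in HBSS, 20 mM HEPES, pH 7.2. Inhibition scaled between agonist-only and buffer-only responses; IC50 by sigmoid fitting.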

Sequence of human TRPA1 (O75762 whole entry): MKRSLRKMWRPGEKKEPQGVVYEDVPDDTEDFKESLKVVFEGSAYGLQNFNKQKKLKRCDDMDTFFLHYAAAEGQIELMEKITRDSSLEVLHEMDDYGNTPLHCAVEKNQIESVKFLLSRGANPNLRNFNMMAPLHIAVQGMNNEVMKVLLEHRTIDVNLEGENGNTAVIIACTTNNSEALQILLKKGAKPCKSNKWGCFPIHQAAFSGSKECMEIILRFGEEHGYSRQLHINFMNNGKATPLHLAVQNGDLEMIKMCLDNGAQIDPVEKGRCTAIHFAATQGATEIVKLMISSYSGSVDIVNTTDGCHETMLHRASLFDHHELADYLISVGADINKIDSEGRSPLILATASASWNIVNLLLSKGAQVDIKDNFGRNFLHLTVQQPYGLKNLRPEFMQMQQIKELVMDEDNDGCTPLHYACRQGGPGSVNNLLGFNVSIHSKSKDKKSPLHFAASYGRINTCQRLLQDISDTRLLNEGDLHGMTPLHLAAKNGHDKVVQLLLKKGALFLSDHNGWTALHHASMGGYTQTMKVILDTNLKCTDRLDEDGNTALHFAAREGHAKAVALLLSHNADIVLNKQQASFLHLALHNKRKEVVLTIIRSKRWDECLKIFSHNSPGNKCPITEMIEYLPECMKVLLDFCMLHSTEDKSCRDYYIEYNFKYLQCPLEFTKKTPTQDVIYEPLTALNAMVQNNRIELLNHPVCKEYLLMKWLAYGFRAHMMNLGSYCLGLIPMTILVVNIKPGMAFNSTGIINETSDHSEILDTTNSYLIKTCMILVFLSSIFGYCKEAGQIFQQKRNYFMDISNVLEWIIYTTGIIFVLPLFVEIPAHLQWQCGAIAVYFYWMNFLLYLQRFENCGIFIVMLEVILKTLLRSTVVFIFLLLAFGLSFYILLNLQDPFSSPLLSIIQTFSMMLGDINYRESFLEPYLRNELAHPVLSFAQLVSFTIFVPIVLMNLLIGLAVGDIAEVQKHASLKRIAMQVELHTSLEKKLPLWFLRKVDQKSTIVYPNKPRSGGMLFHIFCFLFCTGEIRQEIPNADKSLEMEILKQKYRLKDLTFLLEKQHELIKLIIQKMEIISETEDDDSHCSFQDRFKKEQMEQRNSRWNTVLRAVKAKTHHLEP

Structure (SMILES): C[C@H](NS(=O)(=O)c1cc2cc(F)ccc2o1)C(=O)NCc1cccc(-c2cnc(C(F)(F)F)nc2)c1 [Example 233, (2S)-2-[(5-fluorobenzofuran-2-yl)sulfonylamino]-N-[[3-[2-(trifluoromethyl)pyrimidin-5-yl]phenyl]methyl]propanamide]
- IC50: 10 nM

Structure (SMILES): C[C@H](NS(=O)(=O)c1cc2cc(F)ccc2o1)C(=O)NCc1cccc(-c2cnc(C(F)(F)F)cn2)c1 [Example 234, (2S)-2-[(5-fluorobenzofuran-2-yl)sulfonylamino]-N-[[3-[5-(trifluoromethyl)pyrazin-2-yl]phenyl]methyl]propanamide]
- IC50: 34 nM

Structure (SMILES): C[C@H](NS(=O)(=O)c1cc2cc(F)ccc2o1)C(=O)NCc1cccc(-c2ccc(C(F)(F)F)nn2)c1 [Example 235, (2S)-2-[(5-fluorobenzofuran-2-yl)sulfonylamino]-N-[[3-[6-(trifluoromethyl)pyridazin-3-yl]phenyl]methyl]propanamide]
- IC50: 20 nM

Structure (SMILES): C[C@H](NS(=O)(=O)c1cc2cc(F)ccc2o1)C(=O)NCc1ccnc(-c2ccc(C(F)(F)F)nc2)c1 [Example 236, (2S)-2-[(5-fluorobenzofuran-2-yl)sulfonylamino]-N-[[2-[6-(trifluoromethyl)-3-pyridyl]-4-pyridyl]methyl]propanamide]
- IC50: 31 nM

Structure (SMILES): C[C@H](NS(=O)(=O)c1cc2cc(F)ccc2o1)C(=O)NCc1ccnc(-c2ccc(C(F)(F)F)cn2)c1 [Example 237, (2S)-2-[(5-fluorobenzofuran-2-yl)sulfonylamino]-N-[[2-[5-(trifluoromethyl)-2-pyridyl]-4-pyridyl]methyl]propanamide]
- IC50: 270 nM

Structure (SMILES): C[C@H](NS(=O)(=O)c1cc2cc(F)ccc2o1)C(=O)NCc1ccnc(-c2cnc(C(F)(F)F)nc2)c1 [Example 238, (2S)-2-[(5-fluorobenzofuran-2-yl)sulfonylamino]-N-[[2-[2-(trifluoromethyl)pyrimidin-5-yl]-4-pyridyl]methyl]propanamide]
- IC50: 42 nM

Structure (SMILES): C[C@H](NS(=O)(=O)c1cc2cc(F)ccc2o1)C(=O)NCc1cc(-c2ccc(OC(F)(F)F)cc2)ccn1 [Example 239, (2S)-2-[(5-fluorobenzofuran-2-yl)sulfonylamino]-N-[[4-[4-(trifluoromethoxy)phenyl]-2-pyridyl]methyl]propanamide]
- IC50: 17 nM

Structure (SMILES): C[C@H](NS(=O)(=O)c1cc2cc(F)ccc2o1)C(=O)NCc1cc(-c2ccc(C(F)(F)F)cn2)ccn1 [Example 240, (2S)-2-[(5-fluorobenzofuran-2-yl)sulfonylamino]-N-[[4-[5-(trifluoromethyl)-2-pyridyl]-2-pyridyl]methyl]propanamide]
- IC50: 14 nM

Structure (SMILES): C[C@H](NS(=O)(=O)c1cc2cc(F)ccc2o1)C(=O)NCc1cc(-c2cnc(C(F)(F)F)nc2)ccn1 [Example 241, (2S)-2-[(5-fluorobenzofuran-2-yl)sulfonylamino]-N-[[4-[2-(trifluoromethyl)pyrimidin-5-yl]-2-pyridyl]methyl]propanamide]
- IC50: 75 nM

Structure (SMILES): C[C@H](NS(=O)(=O)c1cc2cc(F)ccc2o1)C(=O)NCc1cc(-c2ncc(C(F)(F)F)cn2)ccn1 [Example 242, (2S)-2-[(5-fluorobenzofuran-2-yl)sulfonylamino]-N-[[4-[5-(trifluoromethyl)pyrimidin-2-yl]-2-pyridyl]methyl]propanamide]
- IC50: 160 nM

Structure (SMILES): C[C@H](NS(=O)(=O)c1cc2cc(F)ccc2o1)C(=O)NCc1cc(-c2cnc(C(F)(F)F)cn2)ccn1 [Example 243, (2S)-2-[(5-fluorobenzofuran-2-yl)sulfonylamino]-N-[[4-[5-(trifluoromethyl)pyrazin-2-yl]-2-pyridyl]methyl]propanamide]
- IC50: 55 nM

Structure (SMILES): C[C@H](NS(=O)(=O)c1cc2cc(F)ccc2o1)C(=O)NCc1cc(-c2ccc(C(F)(F)F)nn2)ccn1 [Example 244, (2S)-2-[(5-fluorobenzofuran-2-yl)sulfonylamino]-N-[[4-[6-(trifluoromethyl)pyridazin-3-yl]-2-pyridyl]methyl]propanamide]
- IC50: 44 nM

Structure (SMILES): C[C@H](NS(=O)(=O)c1cc2cc(F)ccc2o1)C(=O)NCc1cncc(-c2ccc(C(F)(F)F)nc2)c1 [Example 245, (2S)-2-[(5-fluorobenzofuran-2-yl)sulfonylamino]-N-[[5-[6-(trifluoromethyl)-3-pyridyl]-3-pyridyl]methyl]propanamide]
- IC50: 120 nM

Structure (SMILES): C[C@H](NS(=O)(=O)c1cc2cc(F)ccc2o1)C(=O)NCc1cncc(-c2ccc(C(F)(F)F)cn2)c1 [Example 246, (2S)-2-[(5-fluorobenzofuran-2-yl)sulfonylamino]-N-[[5-[5-(trifluoromethyl)-2-pyridyl]-3-pyridyl]methyl]propanamide]
- IC50: 110 nM

Structure (SMILES): C[C@H](NS(=O)(=O)c1cc2cc(F)ccc2o1)C(=O)NCc1cc(-c2ccc(C(F)(F)F)cn2)ncn1 [Example 247, (2S)-2-[(5-fluorobenzofuran-2-yl)sulfonylamino]-N-[[6-[5-(trifluoromethyl)-2-pyridyl]pyrimidin-4-yl]methyl]propanamide]
- IC50: 64 nM

Structure (SMILES): C[C@H](NS(=O)(=O)c1cc2cc(F)ccc2o1)C(=O)NCc1cc(-c2cnc(C(F)(F)F)nc2)ncn1 [Example 248, (2S)-2-[(5-fluorobenzofuran-2-yl)sulfonylamino]-N-[[6-[2-(trifluoromethyl)pyrimidin-5-yl]pyrimidin-4-yl]methyl]propanamide]
- IC50: 20 nM

Structure (SMILES): C[C@H](NS(=O)(=O)c1cc2cc(F)ccc2o1)C(=O)NCc1cnnc(-c2ccc(C(F)(F)F)cc2)c1 [Example 249, (2S)-2-[(5-fluorobenzofuran-2-yl)sulfonylamino]-N-[[6-[4-(trifluoromethyl)phenyl]-pyridazin-4-yl]methyl]propanamide]
- IC50: 170 nM

Structure (SMILES): C[C@H](NS(=O)(=O)c1cc2cc(F)ccc2o1)C(=O)NCc1cc(-c2ccc(C(F)(F)F)cc2)cnn1 [Example 250, (2S)-2-[(5-fluorobenzofuran-2-yl)sulfonylamino]-N-[[5-[4-(trifluoromethyl)phenyl]-pyridazin-3-yl]methyl]propanamide]
- IC50: 72 nM

Structure (SMILES): C[C@H](NS(=O)(=O)c1cc2cc(F)ccc2o1)C(=O)NCc1cc(-c2ccc(C(F)(F)F)cn2)cnn1 [Example 251, (2S)-2-[(5-fluorobenzofuran-2-yl)sulfonylamino]-N-[[5-[5-(trifluoromethyl)-2-pyridyl]pyridazin-3-yl]methyl]propanamide]
- IC50: 330 nM

Structure (SMILES): C[C@H](NS(=O)(=O)c1cc2cc(F)ccc2o1)C(=O)NCc1ccc(O)c(-c2ccc(C(F)(F)F)cn2)c1 [Example 252, (2S)-2-[(5-fluorobenzofuran-2-yl)sulfonylamino]-N-[[4-hydroxy-3-[5-(trifluoromethyl)-2-pyridyl]-phenyl]methyl]propanamide]
- IC50: 14 nM

Structure (SMILES): C[C@H](NS(=O)(=O)c1cc2cc(F)ccc2o1)C(=O)NCc1ccc(O)c(-c2ncc(C(F)(F)F)cn2)c1 [Example 253, (2S)-2-[(5-fluorobenzofuran-2-yl)sulfonylamino]-N-[[4-hydroxy-3-[5-(trifluoromethyl)pyrimidin-2-yl]phenyl]methyl]propanamide]
- IC50: 160 nM

Structure (SMILES): C[C@H](NS(=O)(=O)c1cc2cc(F)ccc2o1)C(=O)NCc1ccc(O)c(-c2cnc(C(F)(F)F)cn2)c1 [Example 254, (2S)-2-[(5-fluorobenzofuran-2-yl)sulfonylamino]-N-[[4-hydroxy-3-[5-(trifluoromethyl)pyrazin-2-yl]phenyl]methyl]propanamide]
- IC50: 80 nM
